The term melting point denotes the temperature of the solid-liquid transition.

The results in this text go back to patent publication US11306095B2 (EAST CHINA UNIVERSITY OF SCIENCE AND TECHNOLOGY, priority 2015, dated 2022).

For one series, the target named is T1, Wild type EGFR (Homo sapiens, UniProt P00533).
T1 construct: purchased Invitrogen PV3872
Description: Kinase activity test (FRET), wild type EGFR. Format: biochemical. The settings on record: wild type EGFR; read-out: Inhibitory activity of EGFR on kinase (IC50, nM) WT. The procedure, abridged:
(§1)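 FRET assay with coumarin/fluorescein-labelled poly(Glu, Tyr)4:1 peptide and ATP, compounds at 5.1×10^−11 to 1.0×10^−6 mol/L final. Kinase reaction 1.5 h at room temperature, then 1 h development cleaving unphosphorylated peptide.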

Series [1] relates to H1975 cells (EGFR L858R/T790M). Description: Inhibitory activity on cell proliferation, H1975. In kind it is cell-based. The settings on record: Homo sapiens, NCI-H1975; H1975, 72 hours; read-out: Inhibitory activity on proliferation of cells (IC50, μM) H1975.
For series [2], the system named is A431 cells (EGFR wild type). The series is described as follows: Inhibitory activity on cell proliferation, A431. The settings on record: Homo sapiens, A-431; A431, 72 hours; read-out: Inhibitory activity on proliferation of cells (IC50, μM) A431. Format: cell-based.
The nature of series [3]: Determination of solubility in water (PBS 20 mM, pH 6.8). In kind it is physicochemical. The settings on record: PBS buffer, aqueous buffer, thermodynamic from solid; pH 6.8, 20 mM PBS; read-out: Solubility (pH 6.8, g/mL). In short, it runs like this:
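Compound suspension filtered (0.22 μm PVDF), diluted in 50% methanol/50% PBS, absorbance read by UV spectrophotometry. Solubility calculated from a standard curve of 0.01–0.05 mg/mL methanol-derived solutions (r > 0.998).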

The target of the next series is T2, EGFR-L858R/T790M (Homo sapiens, UniProt P00533, L858R/T790M).
T2 construct: purchased Invitrogen PV4879
T2 sequence (P00533 25-1210 T790M/L858R): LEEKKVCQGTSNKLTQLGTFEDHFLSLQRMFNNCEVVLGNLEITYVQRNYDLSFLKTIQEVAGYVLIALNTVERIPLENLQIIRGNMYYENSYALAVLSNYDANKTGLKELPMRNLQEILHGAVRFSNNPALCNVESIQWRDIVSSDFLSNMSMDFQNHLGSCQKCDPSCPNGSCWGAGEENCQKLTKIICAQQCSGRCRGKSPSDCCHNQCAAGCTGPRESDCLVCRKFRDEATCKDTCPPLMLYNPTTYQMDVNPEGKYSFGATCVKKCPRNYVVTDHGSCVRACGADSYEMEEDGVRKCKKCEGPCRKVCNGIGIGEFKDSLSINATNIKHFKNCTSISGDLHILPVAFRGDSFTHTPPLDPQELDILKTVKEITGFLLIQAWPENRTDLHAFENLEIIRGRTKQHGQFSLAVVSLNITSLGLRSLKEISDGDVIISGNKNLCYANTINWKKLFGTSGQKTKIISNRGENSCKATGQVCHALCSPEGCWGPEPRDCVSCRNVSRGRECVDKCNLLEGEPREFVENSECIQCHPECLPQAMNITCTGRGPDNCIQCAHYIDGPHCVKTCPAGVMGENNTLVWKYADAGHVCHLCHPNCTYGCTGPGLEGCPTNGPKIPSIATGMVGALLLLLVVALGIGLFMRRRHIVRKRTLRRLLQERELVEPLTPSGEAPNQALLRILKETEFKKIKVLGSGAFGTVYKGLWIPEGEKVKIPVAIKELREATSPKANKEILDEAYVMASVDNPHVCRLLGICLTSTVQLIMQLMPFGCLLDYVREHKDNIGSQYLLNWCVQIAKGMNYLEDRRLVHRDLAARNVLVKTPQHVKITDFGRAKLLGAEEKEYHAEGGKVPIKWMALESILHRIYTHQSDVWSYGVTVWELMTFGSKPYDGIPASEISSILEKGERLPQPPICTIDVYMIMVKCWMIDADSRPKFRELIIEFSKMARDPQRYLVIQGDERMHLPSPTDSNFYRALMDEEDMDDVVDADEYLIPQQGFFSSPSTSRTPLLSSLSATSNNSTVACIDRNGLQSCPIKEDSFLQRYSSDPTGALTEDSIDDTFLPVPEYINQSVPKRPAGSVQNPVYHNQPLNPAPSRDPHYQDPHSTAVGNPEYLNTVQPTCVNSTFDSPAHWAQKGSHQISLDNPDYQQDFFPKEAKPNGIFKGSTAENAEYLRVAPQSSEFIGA
Description: Kinase activity test (FRET), EGFR T790M/L858R. In kind it is biochemical. The settings on record: EGFR T790M/L858R; read-out: Inhibitory activity of EGFR on kinase (IC50, nM) T790M/L858R. In short, it runs like this: as §1

≈ marks a conversion by molar mass, not a printed value.

T1 sequence (P00533 25-1210): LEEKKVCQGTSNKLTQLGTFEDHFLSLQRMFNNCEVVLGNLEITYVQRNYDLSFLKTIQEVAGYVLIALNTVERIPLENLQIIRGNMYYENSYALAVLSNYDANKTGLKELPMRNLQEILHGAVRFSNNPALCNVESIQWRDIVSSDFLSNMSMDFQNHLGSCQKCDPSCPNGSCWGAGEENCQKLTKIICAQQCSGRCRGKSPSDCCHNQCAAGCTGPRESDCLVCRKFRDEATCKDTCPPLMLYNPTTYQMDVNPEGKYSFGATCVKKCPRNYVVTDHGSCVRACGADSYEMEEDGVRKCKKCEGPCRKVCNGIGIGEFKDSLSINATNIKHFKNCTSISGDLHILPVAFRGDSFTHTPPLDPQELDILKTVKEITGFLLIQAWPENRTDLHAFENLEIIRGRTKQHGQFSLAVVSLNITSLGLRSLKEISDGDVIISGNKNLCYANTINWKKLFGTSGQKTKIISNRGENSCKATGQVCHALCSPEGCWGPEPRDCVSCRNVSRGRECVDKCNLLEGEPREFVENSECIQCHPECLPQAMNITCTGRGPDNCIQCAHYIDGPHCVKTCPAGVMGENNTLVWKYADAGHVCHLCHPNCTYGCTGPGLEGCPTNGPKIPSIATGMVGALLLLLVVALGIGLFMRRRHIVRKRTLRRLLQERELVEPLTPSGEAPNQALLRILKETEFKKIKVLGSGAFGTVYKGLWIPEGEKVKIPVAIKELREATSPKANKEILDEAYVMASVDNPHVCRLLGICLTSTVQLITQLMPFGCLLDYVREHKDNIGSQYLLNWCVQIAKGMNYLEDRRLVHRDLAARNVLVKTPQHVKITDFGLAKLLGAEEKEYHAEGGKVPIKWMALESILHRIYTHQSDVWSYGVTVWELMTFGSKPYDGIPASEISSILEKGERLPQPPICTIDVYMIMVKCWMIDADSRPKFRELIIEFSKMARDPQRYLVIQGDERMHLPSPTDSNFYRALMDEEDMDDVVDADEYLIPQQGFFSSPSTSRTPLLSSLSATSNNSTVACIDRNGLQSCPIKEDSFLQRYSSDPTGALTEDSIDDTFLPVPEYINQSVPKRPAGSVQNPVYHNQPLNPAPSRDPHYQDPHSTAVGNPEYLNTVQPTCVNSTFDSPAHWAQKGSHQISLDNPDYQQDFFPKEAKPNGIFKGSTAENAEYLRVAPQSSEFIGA

`C=CC(=O)Nc1cccc(-n2c(=O)c(-c3ccccc3)nc3cnc(Nc4cc(C)c(N5CCN(C)CC5)cc4OC)nc32)c1` [Compound 38, N-(3-(2-((2-methoxy-5-methyl-4-(4-methyl-1-piperazinyl)phenyl)amino)-7-oxo-6-phenyl-8(7H)pteridinonyl)phenyl)acrylamide]: the melting point was 292.9 to 293.4 °C. Moreover, the IC50 on Wild type EGFR worked out at 2.8 nM. Moreover, the IC50 in series [1] was 0.165 µM. Besides, the IC50 in series [2] was 2.35 µM. Also, the solubility in series [3] was under 10 µg/mL. On EGFR-L858R/T790M, the IC50 is 0.6 nM.
For `C=CC(=O)Nc1cccc(-n2c(=O)c(C(C)C)nc3cnc(Nc4cc(C)c(N5CCN(C)CC5)cc4OC)nc32)c1` [Compound 39, N-(3-(6-isopropyl-2-((2-methoxy-5-methyl-4-(4-methyl-1-piperazinyl)phenyl)amino)-7-oxo-8(7H)pteridinyl)phenyl)acrylamide], the melting point fell in the range of 227.5 to 228.5 °C. The IC50 at Wild type EGFR is 130 nM. Also, the IC50 in series [1] turned out to be 0.572 µM. Also, the IC50 in series [2] worked out at 3.84 µM. Moreover, the solubility in series [3] is under 10 µg/mL. Also, at EGFR-L858R/T790M, the IC50 came to 82.2 nM.
`C=CC(=O)N1CC[C@H](n2c(=O)c(-c3ccccc3)nc3cnc(Nc4ccc(N(C)CCN(C)C)c(C)c4)nc32)C1` [Compound 40] showed a melting point of 256.1 to 256.4 °C. Further, the IC50 on Wild type EGFR is over 10000 nM. Further, the IC50 in series [1] was found to be 1.05 µM. In addition, the IC50 in series [2] was 1.38 µM. Also, the solubility in series [3] is over 10 µg/mL. The IC50 on EGFR-L858R/T790M came out at 73.1 nM.
`C=CC(=O)N1CC[C@H](n2c(=O)c(-c3ccccc3)nc3cnc(Nc4ccc(N(C)CCN(C)C)c(OC)c4)nc32)C1` [Compound 41] came in with a melting point of 260 to 260.2 °C. In addition, on Wild type EGFR, the IC50 came out at 5350 nM. Further, the IC50 in series [1] turned out to be 1.19 µM. Also, the IC50 in series [2] was 1.26 µM. In addition, in series [3], the solubility is over 10 µg/mL. Also, the IC50 on EGFR-L858R/T790M is 38.6 nM.
Compound `C=CC(=O)Nc1cccc(-n2c(=O)c(-c3ccccc3)nc3cnc(Nc4ccc(N5CCN(C)CC5)c(OC)c4)nc32)c1` [Compound 42, N-(3-(2-((3-methoxy-4-(4-methyl-1-piperazinyl)phenyl)amino)-7-oxo-6-phenyl-8(7H)pteridinyl)phenyl)acrylamide] registered a melting point of 264.7 to 265.5 °C. Further, the IC50 at Wild type EGFR worked out at 528 nM. In addition, the IC50 in series [1] came to 0.003 µM. The IC50 in series [2] is 0.328 µM. The solubility in series [3] was under 10 µg/mL. Further, the IC50 at EGFR-L858R/T790M amounted to 47.5 nM.
`C=CC(=O)N1CCC[C@H](Cn2c(=O)c(-c3ccccc3)nc3cnc(Nc4ccc(N5CCN(C)CC5)cc4OC)nc32)C1` [Compound 44] showed a melting point of 208.3 to 209.3 °C. At Wild type EGFR, the IC50 was 343 nM. In series [1], the IC50 is 1.56 µM. The IC50 in series [2] turned out to be 1.81 µM. Besides, the solubility in series [3] is under 10 µg/mL. Further, the IC50 on EGFR-L858R/T790M is over 1000 nM.
In turn, `C=CC(=O)N1CCC[C@@H](n2c(=O)c(-c3ccccc3)nc3cnc(Nc4ccc(N5CCN(C)CC5)cc4OC)nc32)C1` [Compound 45, (R)-8-(1-acryloyl-3-piperidinyl)-2-((2-methoxy-4-(4-methyl-1-piperazinyl)phenyl)amino)-6-phenyl-7(8H)pteridinone] had a melting point of 134.9 to 135.1 °C. At Wild type EGFR, the IC50 is over 1000 nM. For the same compound, in series [1], the IC50 is 1.78 µM. For the same compound, the IC50 in series [2] was 4.28 µM. Further, the solubility in series [3] is under 10 µg/mL. Moreover, on EGFR-L858R/T790M, the IC50 was over 1000 nM.
On to `C=CC(=O)N1CCC[C@@H](n2c(=O)c(C3CCCCC3)nc3cnc(Nc4ccc(N5CCN(C)CC5)cc4OC)nc32)C1` [Compound 46, (R)-8-(1-acryloyl-3-piperidinyl)-6-cyclohexyl-2-((2-methoxy-4-(4-methyl-1-piperazinyl)phenyl)amino)-7(8H)pteridinone], for which the melting point lay within 94.2 to 94.7 °C. Further, the IC50 at Wild type EGFR is over 10000 nM. Also, in series [1], the IC50 is 2.16 µM. For the same compound, the IC50 in series [2] worked out at 2.39 µM. Moreover, in series [3], the solubility came out at 43.2 µg/mL (≈ 73.6 µM). The IC50 at EGFR-L858R/T790M is 13.3 nM.
In the case of `C=CC(=O)Nc1cccc(-n2c(=O)c(-c3ccccc3)nc3cnc(Nc4ccc(N5CCN(C)CC5)c(C)c4)nc32)c1` [Compound 47, N-(3-(2-((3-methyl-4-(4-methyl-1-piperazinyl)phenyl)amino)-7-oxy-6-phenyl-8(7H)pteridinyl)phenyl)acrylamide], the melting point was 265 to 265.2 °C. In addition, the IC50 on Wild type EGFR is 0.5 nM. In addition, the IC50 in series [1] was 0.018 µM. For the same compound, in series [2], the IC50 was found to be 1.73 µM. Moreover, in series [3], the solubility is under 10 µg/mL. Also, the IC50 on EGFR-L858R/T790M came to 0.2 nM.
The compound `C=CC(=O)Nc1cccc(-n2c(=O)c(-c3ccccc3)nc3cnc(Nc4ccc(N5CCC(N6CCN(C)CC6)CC5)cc4OC)nc32)c1` [Compound 48, N-(3-(2-((2-methoxy-4-(4-(4-methyl-1-piperazinyl)piperidinyl)phenyl)amino)-7-oxo-6-phenyl-8(7H)pteridinyl)phenyl)acrylamide] had a melting point of over 300 °C. On Wild type EGFR, the IC50 was determined as 362 nM. The IC50 in series [1] was found to be 0.031 µM. For the same compound, the IC50 in series [2] is 0.64 µM. Moreover, the solubility in series [3] is under 10 µg/mL. In addition, on EGFR-L858R/T790M, the IC50 was determined as 20.8 nM.
`C=CC(=O)N1CC[C@H](n2c(=O)c(C3CCCCC3)nc3cnc(Nc4ccc(N5CCN(C)CC5)cc4OC)nc32)C1` [Compound 50, (S)-8-(1-acryloyl-3-pyrrolidinyl)-6-cyclohexyl-2-((2-methoxy-4-(4-methyl-1-piperazinyl)phenyl)amino)-7(8H)pteridinone] had a melting point of 117.9 to 118.2 °C. The IC50 on Wild type EGFR was 2.7 nM. In addition, the IC50 in series [1] came to 1.24 µM. Besides, in series [2], the IC50 was 1.11 µM. In addition, in series [3], the solubility is 719 µg/mL (≈ 1260 µM). In addition, on EGFR-L858R/T790M, the IC50 came to 86.9 nM.
`COc1cc(N2CCN(C)CC2)ccc1Nc1ncc2nc(-c3ccccc3)c(=O)n(-c3cccc(N)c3)c2n1` [Compound 51, 8-(3-aminophenyl)-2-((2-methoxy-4-(4-methyl-1-piperazinyl)phenyl)amino)-6-phenyl-7(8H)pteridinone] had a melting point of 235.5 to 235.7 °C. Besides, at Wild type EGFR, the IC50 amounted to 16.6 nM. The IC50 in series [1] is 5.34 µM. The IC50 in series [2] was found to be 2.06 µM. The solubility in series [3] was under 10 µg/mL. Moreover, the IC50 at EGFR-L858R/T790M was 251 nM.
Compound `C=CC(=O)Nc1cccc(-n2c(=O)c(-c3ccc(F)cc3)nc3cnc(Nc4ccc(N5CCN(C)CC5)cc4OC)nc32)c1` [Compound 52, N-(3-(6-(4-fluorophenyl)-2-((2-methoxy-4-(4-methyl-1-piperazinyl)phenyl)amino)-7-oxo-8(7H)pteridinyl)phenyl)acrylamide] gave a melting point of 262.3 to 262.7 °C. The IC50 at Wild type EGFR came out at 1.3 nM. Also, the IC50 in series [1] is 0.044 µM. For the same compound, in series [2], the IC50 was 1.46 µM. Also, in series [3], the solubility is under 10 µg/mL. For the same compound, the IC50 at EGFR-L858R/T790M was found to be 0.6 nM.
`C=CC(=O)Nc1cccc(-n2c(=O)c(-c3ccc(OC)cc3)nc3cnc(Nc4ccc(N5CCN(C)CC5)cc4OC)nc32)c1` [Compound 54, N-(3-(2-((2-methoxy-4-(4-methyl-1-piperazinyl)phenyl)amino)-6-(4-methoxyphenyl)-7-oxo-8(7H)pteridinyl)phenyl)acrylamide] gave a melting point of 296.5 to 297.3 °C. At Wild type EGFR, the IC50 was determined as 1.5 nM. Moreover, the IC50 in series [1] came to 1.06 µM. For the same compound, in series [2], the IC50 is 4.1 µM. Besides, the solubility in series [3] was under 10 µg/mL. At EGFR-L858R/T790M, the IC50 is 3.5 nM.
